Here are results for 104 compounds from PubChem BioAssay AID1996.

In brackets after ≈: the same amount, converted by molar mass. Bounds are passed on as bounds.

For the data set the following is noted: buffer; pH 7.4; 200.0 µM.
As to `CCC(=O)NC(=S)Nc1ccc(S(=O)(=O)NC2CCCCC2)cc1`, the solubility (kinetic) – broadly, solubility judged after dilution from a stock solution rather than from solid – was 0.4 µg/mL (≈ 1.08 µM). Next, `CC(C)(C)c1ccc(NC(=S)NCc2cccnc2)cc1`: 40.8 µg/mL (≈ 136 µM). `NC(=O)C1CCN(c2ncccc2[N+](=O)[O-])CC1`: the solubility (kinetic) is above 37.5 µg/mL. Next, `Cn1c(-c2cccc([N+](=O)[O-])c2)[n+](C)c2ccccc21.[Cl-]`: above 45.6 µg/mL; `Cc1c(C=O)c2ccccc2n1Cc1ccccc1`: 2.6 µg/mL (≈ 10.4 µM). As to `O=c1[nH]c2ccccc2n1CCCN1CCC(n2c(=O)[nH]c3cc(Cl)ccc32)CC1`, the solubility (kinetic) turned out to be 50.4 µg/mL (≈ 118 µM). Compound `COc1ccc(NC(=O)CN(C)C(=O)c2ccc3ccccc3n2)cc1` showed a kinetic solubility above 52.4 µg/mL. `N#C/C(=C/c1ccncc1)c1nc2ccccc2c(=O)[nH]1` registered a kinetic solubility above 41.1 µg/mL. The compound `CN(C)CC(C)(C)CNCc1cc(=O)oc2ccc3ccccc3c12` gave a kinetic solubility above 50.8 µg/mL. Next, `CN(Cc1ccccc1)C(=O)CN1C(=O)c2ccc([N+](=O)[O-])cc2C1=O`: above 53 µg/mL; `CC(=O)c1cccc(NC(=O)N2CCCCCC2)c1`: above 39.1 µg/mL. Next, `CC(=O)Oc1cc(C(=O)OCC(=O)N2CCc3ccccc3C2)cc(OC(C)=O)c1OC(C)=O`: above 70.4 µg/mL.

The compound `Cc1ccc2c(c1)CCCN2C(=O)c1cc(C)c(C)s1` registered a kinetic solubility of 3.9 µg/mL (≈ 13.7 µM). `O=C1CN=C(c2ccccc2)c2ccccc2N1`: the kinetic solubility is 27.2 µg/mL (≈ 115 µM). Next, `COc1ccc(N=C2NC(=O)C(CO)(CO)S2)cc1`: above 42.3 µg/mL; `CCOP(=O)(OCC)C(Nc1ccccc1)c1ccco1` (centres undefined): above 46.4 µg/mL.

Compound `O=C(CCS(=O)(=O)c1ccccc1)OCc1ccc([N+](=O)[O-])cc1` had a solubility (kinetic) of 32 µg/mL (≈ 91.6 µM). The figure for `O=C(COC(=O)c1cc(Cl)nc(Cl)c1)NCc1ccc2c(c1)OCO2` is 12.1 µg/mL (≈ 31.6 µM); for `Cn1c(SCC(=O)NC2CCCCC2)nnc1-c1ccccn1` it is above 49.7 µg/mL. The figure for `COc1ccc(Cl)cc1CN1CCOCC1.Cl` is above 41.7 µg/mL; for `Cc1ccc(C(=O)N[C@H](C(=O)Nc2ccc(F)cc2)C(C)C)cc1` it is 3 µg/mL (≈ 9.14 µM). Next, `CN(C(=O)COc1ccc(Br)cc1Cl)C1CCCCC1`: 19.8 µg/mL (≈ 54.9 µM). In turn, `C=CCOc1ccc(C2NC(=O)c3ccccc3O2)cc1` (centres undefined) came in with a kinetic solubility of 1.3 µg/mL (≈ 4.62 µM). As for `Cc1ccc(C(=O)NC(=S)N(C)Cc2ccccc2)cc1`, the solubility (kinetic) is 2 µg/mL (≈ 6.7 µM). Consider `O=C1CCC(C(=O)Nc2ccccc2N2CCCC2)=NN1`, for which the solubility (kinetic) was above 42.9 µg/mL.

`Nc1ccc(C(=O)OCC(=O)NC2CC2)cc1[N+](=O)[O-]` returned a kinetic solubility above 41.9 µg/mL.

Take `CN1CCN(C(=O)/C=C/c2c(F)cccc2Cl)CC1`: the kinetic solubility is above 42.4 µg/mL.

`COC(=O)C(Cc1c[nH]c2ccccc12)NC(=O)c1cccs1` (centres undefined) came in with a solubility (kinetic) above 49.3 µg/mL. Next, `O=C(COC(=O)c1ccco1)NCc1ccccc1Cl`: above 44.1 µg/mL; `COc1ccccc1/C=C1\N=C(C(C)(C)C)OC1=O`: 3 µg/mL (≈ 11.6 µM); `CCOC(=O)Cc1csc(NC(=O)Cc2ccc(C)cc2)n1`: 45.2 µg/mL (≈ 142 µM). On to `Cc1ccc(S(=O)(=O)N2CCn3cccc3C2C)cc1` (centres undefined), for which the kinetic solubility was above 43.6 µg/mL. Next, `CSC1=NC2(CCCCC2)CC12C=CC(=O)C=C2`: 36.2 µg/mL (≈ 138 µM); `COc1cc(C(=O)Nc2cc(C)ccc2C)ccc1OCc1c(C)noc1C`: 7.1 µg/mL (≈ 18.7 µM); `O=C(Cc1ccccc1)N/N=C/c1cccnc1`: above 35.9 µg/mL. `CCOc1ccccc1NC(=O)NCc1ccccn1` returned a solubility (kinetic) above 40.7 µg/mL. `COc1ccccc1C(=O)NCC(=O)NNC(=O)c1cccs1` displayed a solubility (kinetic) above 50 µg/mL. As to `CCC1=C(C)CN(C(=O)NCCc2ccc(S(=O)(=O)NC(=O)NC3CCC(C)CC3)cc2)C1=O` (centres undefined), the kinetic solubility was above 73.6 µg/mL. `Cc1ccc2c(c1)C(=O)OC1(O)C3C4C=CC(C4)C3C(=O)N21` (centres undefined) showed a kinetic solubility above 44.6 µg/mL. Next, `O=C1CSC(c2ccc(F)cc2)N1c1ccccc1F` (centres undefined): 36.8 µg/mL (≈ 126 µM); `Cc1nccc(-c2cccc(NC(=O)Nc3ccc(Cl)cc3)c2)n1`: 0.6 µg/mL (≈ 1.77 µM); `CC(=O)Nc1ccc(-c2nc3ccccc3o2)cc1`: 1.3 µg/mL (≈ 5.15 µM). Next, `CCS(=O)(=O)c1ccc(C(=O)NC)c(Cl)c1Cl`: above 44.4 µg/mL; `O=C(COC(=O)c1cccs1)Nc1cccc(S(=O)(=O)N2CCCCC2)c1`: 9.6 µg/mL (≈ 23.5 µM).

Compound `O=C(COC(=O)Cc1ccc(S(=O)(=O)N2CCOCC2)s1)Nc1ccc(F)cc1F` displayed a kinetic solubility above 69.1 µg/mL. The figure for `O=C(COC(=O)/C=C/c1ccc(Cl)cc1)NC1CC1` is 7.1 µg/mL (≈ 25.4 µM); for `COc1ccc(C2=NOC(CNC(=S)N3CCOCC3)C2)cc1` (centres undefined) it is 12.8 µg/mL (≈ 38.2 µM). Next, `COC(=O)c1ccc(N2CCN(c3ccccc3)CC2)nc1`: 1.7 µg/mL (≈ 5.72 µM); `CCN(CC)C(=O)Cc1ccccc1`: above 28.7 µg/mL. In turn, `Cc1nc2c(ccc3c([N+](=O)[O-])cccc32)c(C)c1C` showed a solubility (kinetic) of 0.8 µg/mL (≈ 3 µM). Next, `CN1C(=O)c2cccc3c(S(=O)(=O)N(C)C)ccc1c23`: 14 µg/mL (≈ 48.2 µM). The figure for `O=C(NC1CC(=O)c2sccc21)c1ccc(Cl)cc1Cl` (centres undefined) is above 48.9 µg/mL. `COc1ccc(NC2CCCN(C(=O)c3c(C)noc3C)C2)cc1` (centres undefined) displayed a solubility (kinetic) above 49.4 µg/mL. Next, `O=C(c1cc(-c2ccccc2O)on1)N1CCCCCC1`: 2.6 µg/mL (≈ 9.08 µM).

In turn, `Cc1oncc1C(=O)Nc1cccc(C#N)c1` came in with a kinetic solubility above 34.1 µg/mL.

For the compound `COC(=O)CCCN1C(=O)c2cccc3cccc(c23)C1=O`, the solubility (kinetic) was 43.6 µg/mL (≈ 147 µM). `CC[C@H](C)[C@H](NC(N)=O)C(=O)Nc1ccccc1F` showed a kinetic solubility above 40.1 µg/mL. `CCOc1ccccc1NC(=O)Nc1ccccn1` displayed a solubility (kinetic) below 0.2 µg/mL. The compound `O=C(CN1C(=O)NC2(CCCCC2)C1=O)Nc1ccc(N2CCCCC2)cc1` displayed a solubility (kinetic) of 10.9 µg/mL (≈ 28.3 µM). As to `CCN(C(=O)c1ccc2c(c1)OCO2)C1CCS(=O)(=O)C1` (centres undefined), the kinetic solubility is above 46.7 µg/mL. Take `Cc1sc2ncnc(NCC(c3ccccc3)N(C)C)c2c1C` (centres undefined): the kinetic solubility worked out at 47.1 µg/mL (≈ 144 µM).

For the compound `CCc1c(C)sc(NC(=S)Nc2nc(C)cc(C)n2)c1C(=O)OC`, the solubility (kinetic) is below 0.2 µg/mL. Next, `CC1CCCC(NC(=O)CSc2nncs2)C1C` (centres undefined): above 42.8 µg/mL; `COc1ncnc2c1ncn2CC1COC(C)(C)O1` (centres undefined): 34.9 µg/mL (≈ 132 µM); `COc1ccccc1N1CCNCC1.Cl`: 28.2 µg/mL.

`COc1ccc(OC)c(NC(=O)COC(=O)CCCN=C2NS(=O)(=O)c3ccccc32)c1` gave a kinetic solubility of 6.4 µg/mL (≈ 13.9 µM). Consider `CCn1c(SCC(=O)N2CCCC2)nc2c(c1=O)SCC2`, for which the solubility (kinetic) was above 48.8 µg/mL. On to `Cl.Clc1ccc(NCc2ccsc2)cc1`, for which the kinetic solubility is 2.7 µg/mL.

On to `CN(C)C(CNC(=O)c1ccco1)c1cccs1` (centres undefined), for which the kinetic solubility was above 39.7 µg/mL. Turning to `CC(C)OCCCNC(=O)Cc1ccc(F)cc1`, the kinetic solubility was above 38 µg/mL. As to `CN(C)S(=O)(=O)c1cccc(NC(=O)C2CCN(S(=O)(=O)c3cccs3)CC2)c1`, the kinetic solubility is 23.4 µg/mL (≈ 51.1 µM). Next, `O=C1CN(C(=O)COc2ccc(Br)cc2)c2ccccc2N1`: 10.3 µg/mL (≈ 28.5 µM).

For the compound `CC(=O)N(C)c1ccc(NC(=O)Cc2cccs2)cc1`, the kinetic solubility turned out to be 42.6 µg/mL (≈ 148 µM). Next, `COc1ccc2c(c1OC)C(=O)N(c1cccc(/C=C/C(=O)O)c1)C2`: above 50.9 µg/mL; `O=C(Nc1ccnc(-c2ccncc2)n1)c1ccc(F)cc1`: 0.4 µg/mL (≈ 1.36 µM); `O=C(O)C1CN(C(=O)c2ccccc2)c2cc(Cl)ccc2O1` (centres undefined): above 47.7 µg/mL. The figure for `O=C1CN(C(=O)CSc2ccccn2)c2ccccc2N1` is above 44.9 µg/mL; for `CC(Sc1nc2ccccc2[nH]1)C(=O)Nc1ccccc1F` (centres undefined) it is 43.9 µg/mL (≈ 139 µM).

Compound `CC(C)c1ccc(NC(=O)COc2ccccc2)cc1` registered a solubility (kinetic) of 10.1 µg/mL (≈ 37.5 µM).

`Cc1cccc(NC(=O)CN2CCOCC2)c1C` had a kinetic solubility above 37.2 µg/mL. The figure for `O=C(NCC(c1ccco1)N1CCCC1)c1cc(=O)[nH]c2ccccc12` (centres undefined) is above 52.7 µg/mL. In turn, `Cc1cc(Cl)ccc1NC(=O)C1COc2ccccc2O1` (centres undefined) displayed a kinetic solubility of 18.1 µg/mL (≈ 59.6 µM).

Compound `CCOC(=O)C1CCCN(CCSc2ccc(C)cc2)C1.Cl` (centres undefined) registered a kinetic solubility of 41.3 µg/mL.

`COc1ccc(S(=O)(=O)N2CCN(Cc3cccnc3)CC2)cc1` displayed a kinetic solubility above 52.1 µg/mL.

In the case of `Clc1ccc(-c2nc(N3CCOCC3)nc3ccccc23)cc1`, the kinetic solubility is below 0.2 µg/mL.

Compound `CCOC(=O)CC(=O)COc1nc2cc3c(nc2o1)CCCC3` showed a solubility (kinetic) above 47.7 µg/mL. The figure for `Cc1ccc(C)c(NC(=O)CCc2ccc(C)o2)c1` is 24.6 µg/mL (≈ 95.6 µM); for `Cc1cc(Cl)nc(SCC(=O)c2ccccc2)n1` it is 29.3 µg/mL (≈ 105 µM). Turning to `CSc1oc(-c2cccs2)nc1S(=O)(=O)c1ccccc1`, the solubility (kinetic) was determined as 3.9 µg/mL (≈ 11.6 µM). The compound `COc1cccc(OCCn2cc(C=O)c3ccccc32)c1` returned a solubility (kinetic) of 12.2 µg/mL (≈ 41.3 µM). Turning to `COc1ccc(CNc2ccc3c(c2)CCC3)cc1Br`, the solubility (kinetic) is 5.6 µg/mL (≈ 16.9 µM). In the case of `Cc1cccc2c(CCN)c[nH]c12.Cl`, the kinetic solubility is above 31.6 µg/mL.

In turn, `Cc1noc(C)c1S(=O)(=O)N1CCC(C(=O)c2ccccc2)CC1` gave a kinetic solubility of 30 µg/mL (≈ 86.1 µM). Regarding `CC(C)NC(=O)N1CCN(c2ccncc2S(=O)(=O)N2CCCCC2)CC1`, the kinetic solubility was above 59.3 µg/mL. The figure for `O=C(NCCc1ccccc1)c1ccc2c(c1)OCCCO2` is 39.8 µg/mL (≈ 134 µM); for `CC(C)(C)NC(=O)C(OC(=O)c1ccco1)c1ccccc1F` (centres undefined) it is above 47.9 µg/mL. The figure for `CC(C)[C@H](NC(=O)C1CCCC1)c1nc2ccccc2[nH]1` is 9.9 µg/mL (≈ 34.7 µM); for `CC(NC(=O)CN1C(=O)c2ccccc2C1=O)c1ccccc1` (centres undefined) it is 8.4 µg/mL (≈ 27.2 µM); for `Cc1c(Cl)cccc1NC(=O)CCN1C(=O)NC(C)(C)C1=O` it is above 48.6 µg/mL.

Compound `Cc1cccc(OCC(=O)NCC(c2ccco2)N2CCCC2)c1` (centres undefined) yielded a solubility (kinetic) above 49.3 µg/mL.

In turn, `O=C(O)c1cnc2[nH]c3ccccc3n2c1=O` displayed a solubility (kinetic) above 34.4 µg/mL. The compound `CCOc1ccccc1NC(=O)c1cc2ccccc2oc1=O` returned a solubility (kinetic) below 0.7 µg/mL. The figure for `COc1ccc(-c2c(C)nc(N)nc2-c2ccc(OC)cc2O)cc1` is 7.4 µg/mL (≈ 21.9 µM); for `c1ccc(-c2cccc(-c3ccccc3)n2)cc1` it is below 0.5 µg/mL.
